Test results as given in publication PMC3726612, “Amiodarone Inhibits Apamin-Sensitive Potassium Currents” (PLoS ONE, 2013).

How the values were obtained:
Type in all cases: cell-based
[1] = molecular target: T1, human small conductance Ca^2+-activated K^+ channel, subfamily N, member 2 (SK2) (Homo sapiens, UniProt Q9H2S1); test: whole-cell patch clamp, HEK-293 cells transiently expressing SK2; % inhibition at […]; details: HEK293
T1 construct: gene KCNN2; transcript variant 1 (NM_021614.2)

[2] = molecular target: T1, human small conductance Ca^2+-activated K^+ channel, subfamily N, member 2 (SK2); test: whole-cell patch clamp, HEK-293 cells transiently expressing SK2
[3] = molecular target: T1, human small conductance Ca^2+-activated K^+ channel, subfamily N, member 2 (SK2); test: whole-cell patch clamp, HEK-293 cells expressing SK2; % inhibition at […]; details: HEK293
[4] = molecular target: T1, human small conductance Ca^2+-activated K^+ channel, subfamily N, member 2 (SK2); test: as above; details: HEK293; read-out: % inhibition at 500 nM

T1 sequence (Q9H2S1 whole entry): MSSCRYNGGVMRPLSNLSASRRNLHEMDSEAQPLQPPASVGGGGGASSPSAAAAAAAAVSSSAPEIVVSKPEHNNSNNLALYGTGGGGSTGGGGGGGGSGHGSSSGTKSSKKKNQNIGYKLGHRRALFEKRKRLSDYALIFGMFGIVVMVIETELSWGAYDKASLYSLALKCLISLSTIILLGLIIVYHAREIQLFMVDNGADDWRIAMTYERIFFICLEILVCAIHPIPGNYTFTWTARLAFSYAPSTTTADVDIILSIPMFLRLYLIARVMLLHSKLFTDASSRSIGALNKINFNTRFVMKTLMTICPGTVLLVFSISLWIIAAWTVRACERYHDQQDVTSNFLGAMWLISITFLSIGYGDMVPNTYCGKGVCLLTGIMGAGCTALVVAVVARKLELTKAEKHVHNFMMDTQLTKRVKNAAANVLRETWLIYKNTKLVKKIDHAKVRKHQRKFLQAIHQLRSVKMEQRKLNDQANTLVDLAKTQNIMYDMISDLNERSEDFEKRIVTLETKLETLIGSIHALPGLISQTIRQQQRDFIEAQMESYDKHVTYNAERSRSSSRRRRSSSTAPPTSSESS

**Q.** With `CCCCc1oc2ccccc2c1C(=O)c1cc(I)c(OCCNCC)c(I)c1` [DEA, desethylamiodarone] as the compound, how does the inhibition at 20 µM [1] read?
**A.** Its inhibition at 20 µM is 79%.

**Q.** With `CCCCc1oc2ccccc2c1C(=O)c1cc(I)c(OCCN(CC)CC)c(I)c1` [amiodarone] as the compound, how does the IC50 [2] read?
**A.** The IC50 was 2.67 ± 0.25 µM.

**Q.** Which inhibition at 100 µM [3] does the source give for `CCS(=O)(=O)N(C)[C@H]1c2cc(C#N)ccc2OC(C)(C)[C@@H]1O` (racemic) [chromanol 293B] here?
**A.** Its inhibition at 100 µM is 38.2 ± 15%.

**Q.** With `Cc1cccc(CCN2CCC(C(=O)c3ccc(NS(C)(=O)=O)cc3)CC2)n1` [E-4031] as the compound, how does the inhibition at 0.5 µM [4] read?
**A.** The inhibition at 0.5 µM was 37.6 ± 14.9%.
